Assay results: ChEMBL document CHEMBL1201862, “PubChem BioAssay data set” (2004)
One block for each compound: values may come before it. Activity calls are given as the source filed them.

Legend:
Estrogen receptor beta = Estrogen receptor beta (Homo sapiens, UniProt Q92731);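 further: recombinant ER-beta bound to coactivator SRC1 peptide in presence of estradiol agonist; inhibitors block coactivator peptide binding and lower the FRET signal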
Mu-type opioid receptor = Mu-type opioid receptor (Homo sapiens, UniProt P35372); type: functional, cell-based;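 further: U2OS cells with beta-arrestin recruitment to OPRM1 by beta-gal complementation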
[1] = molecular target: 5-hydroxytryptamine receptor 2A (Mus musculus, UniProt P35363); type: functional, cell-based;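 further: CHO-K1 cells with tagged receptor and beta-arrestin; agonist potency measured as compound-induced activation of the receptor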
Protein Wnt-3a = Protein Wnt-3a (Mus musculus, UniProt P27467); test: Wnt3a-driven reporter signaling inhibition, dose response, selectivity assay for Gli-SUFU antagonist project, Wnt-LIGHT cells, luminescence (AID 651570); type: functional; settings: read-out: IC50_Mean;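 further: Wnt-LIGHT reporter cells stimulated with conditioned medium from Wnt3a-producing cells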
Caspase-3 = molecular target: T1, Caspase-3 (Homo sapiens, UniProt P42574); type: functional;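 further: Dose-response selectivity test against caspase-3 for candidate inhibitors of sentrin-specific proteases (SENPs)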
T1 sequence (P42574 whole entry): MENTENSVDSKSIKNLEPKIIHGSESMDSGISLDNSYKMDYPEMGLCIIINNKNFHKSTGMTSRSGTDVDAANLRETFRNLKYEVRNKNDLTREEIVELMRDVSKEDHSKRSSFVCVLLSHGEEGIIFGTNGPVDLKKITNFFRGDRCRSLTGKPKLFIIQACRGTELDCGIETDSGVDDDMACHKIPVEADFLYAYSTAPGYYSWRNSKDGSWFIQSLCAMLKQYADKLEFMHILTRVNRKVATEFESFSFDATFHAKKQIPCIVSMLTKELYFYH

Coagulation factor XII = molecular target: T2, Coagulation factor XII (Homo sapiens, UniProt P00748); type: functional;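 further: activated factor XIIa alpha cleaving a fluorogenic AMC peptide substrate; inhibitor potency from loss of enzyme activity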
T2 sequence (P00748 whole entry): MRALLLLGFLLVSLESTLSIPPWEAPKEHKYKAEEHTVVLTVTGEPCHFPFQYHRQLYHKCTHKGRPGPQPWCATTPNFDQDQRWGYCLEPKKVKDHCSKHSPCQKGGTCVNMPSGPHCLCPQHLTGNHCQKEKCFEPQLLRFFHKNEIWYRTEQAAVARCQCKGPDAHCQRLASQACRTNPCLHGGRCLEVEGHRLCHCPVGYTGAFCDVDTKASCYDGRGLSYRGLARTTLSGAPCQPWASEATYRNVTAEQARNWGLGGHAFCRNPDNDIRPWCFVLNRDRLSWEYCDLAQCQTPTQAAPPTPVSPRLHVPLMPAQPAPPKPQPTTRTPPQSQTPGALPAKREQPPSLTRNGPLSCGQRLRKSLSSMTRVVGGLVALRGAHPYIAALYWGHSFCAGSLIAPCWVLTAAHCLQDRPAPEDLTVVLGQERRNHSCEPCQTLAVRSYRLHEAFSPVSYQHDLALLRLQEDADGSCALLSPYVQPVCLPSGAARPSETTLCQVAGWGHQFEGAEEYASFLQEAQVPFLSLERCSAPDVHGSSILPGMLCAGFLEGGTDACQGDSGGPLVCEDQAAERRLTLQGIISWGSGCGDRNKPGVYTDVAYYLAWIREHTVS

[2] = molecular target: T3, Sentrin-specific protease 7 (Homo sapiens, UniProt Q9BQF6); type: functional;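 further: Luminescence-based dose-response confirmation of ultra-high-throughput screening hits, measuring inhibition of SENP7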
T3 sequence (Q9BQF6 whole entry): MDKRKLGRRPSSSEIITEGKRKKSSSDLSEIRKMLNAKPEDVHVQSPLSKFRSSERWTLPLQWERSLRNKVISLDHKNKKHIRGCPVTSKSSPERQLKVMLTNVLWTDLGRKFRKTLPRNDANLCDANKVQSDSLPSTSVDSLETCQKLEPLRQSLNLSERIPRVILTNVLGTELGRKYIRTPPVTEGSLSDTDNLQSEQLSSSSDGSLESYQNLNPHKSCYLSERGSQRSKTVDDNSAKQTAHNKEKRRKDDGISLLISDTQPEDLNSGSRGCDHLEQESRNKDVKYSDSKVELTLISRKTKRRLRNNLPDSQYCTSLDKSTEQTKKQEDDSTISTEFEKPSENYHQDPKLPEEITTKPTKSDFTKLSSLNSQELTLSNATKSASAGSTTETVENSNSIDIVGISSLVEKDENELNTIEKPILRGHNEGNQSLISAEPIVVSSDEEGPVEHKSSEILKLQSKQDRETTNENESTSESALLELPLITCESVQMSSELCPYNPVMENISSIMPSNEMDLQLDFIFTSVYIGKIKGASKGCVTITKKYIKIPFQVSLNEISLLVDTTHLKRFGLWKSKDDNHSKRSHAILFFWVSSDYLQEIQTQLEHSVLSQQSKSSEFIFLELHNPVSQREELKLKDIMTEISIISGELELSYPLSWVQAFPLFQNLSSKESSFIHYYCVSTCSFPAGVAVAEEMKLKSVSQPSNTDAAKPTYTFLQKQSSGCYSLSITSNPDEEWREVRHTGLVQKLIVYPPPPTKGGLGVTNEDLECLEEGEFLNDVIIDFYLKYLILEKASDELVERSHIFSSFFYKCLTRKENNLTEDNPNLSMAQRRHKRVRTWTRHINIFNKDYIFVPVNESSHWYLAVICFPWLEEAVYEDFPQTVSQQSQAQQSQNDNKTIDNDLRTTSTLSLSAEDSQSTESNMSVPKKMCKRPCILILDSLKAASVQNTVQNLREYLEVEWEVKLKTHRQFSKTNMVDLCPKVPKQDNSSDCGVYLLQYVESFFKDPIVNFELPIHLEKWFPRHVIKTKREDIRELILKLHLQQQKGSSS

[3] = molecular target: T4, Sentrin-specific protease 6 (Homo sapiens, UniProt Q9GZR1); type: functional;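 further: Luminescence-based dose-response confirmatory assay of SENP6 inhibition, following up an ultra-high-throughput screen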
T4 sequence (Q9GZR1 whole entry): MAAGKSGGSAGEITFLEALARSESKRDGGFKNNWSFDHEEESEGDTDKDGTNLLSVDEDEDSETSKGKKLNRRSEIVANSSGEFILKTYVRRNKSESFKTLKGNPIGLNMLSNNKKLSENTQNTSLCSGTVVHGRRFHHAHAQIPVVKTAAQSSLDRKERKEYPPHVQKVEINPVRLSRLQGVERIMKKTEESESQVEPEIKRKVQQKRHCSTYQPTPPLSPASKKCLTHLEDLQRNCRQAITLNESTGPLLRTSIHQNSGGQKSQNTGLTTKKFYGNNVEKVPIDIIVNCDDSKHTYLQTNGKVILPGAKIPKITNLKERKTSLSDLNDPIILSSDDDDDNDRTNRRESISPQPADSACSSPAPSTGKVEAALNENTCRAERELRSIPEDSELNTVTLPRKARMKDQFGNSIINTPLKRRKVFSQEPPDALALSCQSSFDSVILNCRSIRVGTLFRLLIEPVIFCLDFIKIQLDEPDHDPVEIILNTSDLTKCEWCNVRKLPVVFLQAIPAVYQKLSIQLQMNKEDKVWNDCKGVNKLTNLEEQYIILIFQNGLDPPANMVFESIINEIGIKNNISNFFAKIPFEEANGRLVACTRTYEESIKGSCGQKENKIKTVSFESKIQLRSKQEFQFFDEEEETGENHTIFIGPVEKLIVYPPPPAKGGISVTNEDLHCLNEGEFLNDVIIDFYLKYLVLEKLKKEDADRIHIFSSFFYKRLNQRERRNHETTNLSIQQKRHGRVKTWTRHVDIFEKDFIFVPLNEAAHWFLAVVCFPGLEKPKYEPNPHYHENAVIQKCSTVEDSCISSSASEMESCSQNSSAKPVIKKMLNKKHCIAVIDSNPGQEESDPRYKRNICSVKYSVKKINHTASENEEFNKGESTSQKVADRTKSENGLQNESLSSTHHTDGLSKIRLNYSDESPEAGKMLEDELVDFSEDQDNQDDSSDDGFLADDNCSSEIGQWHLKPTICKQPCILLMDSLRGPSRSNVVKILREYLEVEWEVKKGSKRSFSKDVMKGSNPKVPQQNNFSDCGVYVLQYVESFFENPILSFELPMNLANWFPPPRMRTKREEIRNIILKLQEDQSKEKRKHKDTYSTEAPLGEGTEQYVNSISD

[4] = molecular target: T5, Sentrin-specific protease 8 (Homo sapiens, UniProt Q96LD8); type: functional;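 further: luminescence read-out of SENP8 inhibition, dose-response confirmation following an ultra-high-throughput screen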
T5 sequence (Q96LD8 whole entry): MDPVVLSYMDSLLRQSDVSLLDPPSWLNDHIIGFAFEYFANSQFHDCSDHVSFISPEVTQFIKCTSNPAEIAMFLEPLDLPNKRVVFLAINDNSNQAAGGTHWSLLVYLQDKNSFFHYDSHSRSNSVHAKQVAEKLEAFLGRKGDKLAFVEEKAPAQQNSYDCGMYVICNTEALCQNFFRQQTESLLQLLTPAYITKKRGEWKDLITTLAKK

[5] = THP-1 cell cytotoxicity, dose response, cytotoxicity control for Vif-APOBEC3G degradation inhibitor project, THP-1 cells (AID 1117359); type: functional; settings: Human immunodeficiency virus 1, THP-1
[6] = A549 cell cytotoxicity, dose response, cytotoxicity control, plate reader, cherry-pick, antagonist series (AID 743412); type: functional, cell-based
[7] = LGR2 antagonists, dose response, cell-based, HEK293, CRE-luciferase reporter, cherry pick, set 2 (AID 743343); type: functional;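 further: transfected cells were stimulated with diluted bursicon conditioned medium after compound addition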
[8] = MC4R antagonists, dose response, counter-screen for LGR2 antagonist project, cell-based, plate reader, cherry pick (AID 743444); type: functional;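 further: transfected HEK 293 cells stimulated with alpha-MSH peptide; potency of inhibitors of the alpha-MSH evoked signal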
Aminopeptidase N = molecular target: T6, Aminopeptidase N (Plasmodium falciparum FcB1/Columbia, UniProt O96935); test: P. falciparum M1AAP inhibitors, biochemical, fluorogenic H-Leu-NHMec substrate, 1536-well (AID 1445); parameters: species or system Plasmodium falciparum 3D7, 3D7
T6 sequence (O96935 whole entry): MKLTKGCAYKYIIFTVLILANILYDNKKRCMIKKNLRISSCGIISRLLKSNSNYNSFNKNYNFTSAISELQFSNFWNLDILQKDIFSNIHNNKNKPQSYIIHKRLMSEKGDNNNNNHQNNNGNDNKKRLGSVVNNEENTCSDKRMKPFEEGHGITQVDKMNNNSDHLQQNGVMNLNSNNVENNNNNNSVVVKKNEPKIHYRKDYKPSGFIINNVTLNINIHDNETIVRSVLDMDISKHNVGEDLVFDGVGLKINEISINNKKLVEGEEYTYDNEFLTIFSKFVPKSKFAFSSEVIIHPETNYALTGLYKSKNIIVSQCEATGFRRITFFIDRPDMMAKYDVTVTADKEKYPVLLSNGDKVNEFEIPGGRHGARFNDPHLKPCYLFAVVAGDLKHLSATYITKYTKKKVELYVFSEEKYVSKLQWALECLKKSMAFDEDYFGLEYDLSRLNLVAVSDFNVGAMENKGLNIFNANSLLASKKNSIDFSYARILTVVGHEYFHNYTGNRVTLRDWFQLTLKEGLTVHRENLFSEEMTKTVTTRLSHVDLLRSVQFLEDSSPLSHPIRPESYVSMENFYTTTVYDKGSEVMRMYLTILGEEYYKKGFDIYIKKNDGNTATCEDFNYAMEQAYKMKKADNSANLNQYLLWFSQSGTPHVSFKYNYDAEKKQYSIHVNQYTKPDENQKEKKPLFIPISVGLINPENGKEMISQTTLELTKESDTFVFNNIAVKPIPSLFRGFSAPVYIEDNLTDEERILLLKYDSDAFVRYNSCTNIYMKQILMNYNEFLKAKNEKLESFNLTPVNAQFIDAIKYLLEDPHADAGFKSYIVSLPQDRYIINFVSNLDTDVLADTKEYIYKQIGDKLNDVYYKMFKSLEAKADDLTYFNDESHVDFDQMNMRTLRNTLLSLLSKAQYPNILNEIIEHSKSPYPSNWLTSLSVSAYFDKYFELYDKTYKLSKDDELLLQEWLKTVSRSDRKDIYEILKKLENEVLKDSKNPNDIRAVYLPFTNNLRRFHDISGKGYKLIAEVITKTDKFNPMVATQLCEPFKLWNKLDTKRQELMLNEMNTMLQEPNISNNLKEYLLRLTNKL

Chain of Protein Wnt-3a (P27467 whole entry): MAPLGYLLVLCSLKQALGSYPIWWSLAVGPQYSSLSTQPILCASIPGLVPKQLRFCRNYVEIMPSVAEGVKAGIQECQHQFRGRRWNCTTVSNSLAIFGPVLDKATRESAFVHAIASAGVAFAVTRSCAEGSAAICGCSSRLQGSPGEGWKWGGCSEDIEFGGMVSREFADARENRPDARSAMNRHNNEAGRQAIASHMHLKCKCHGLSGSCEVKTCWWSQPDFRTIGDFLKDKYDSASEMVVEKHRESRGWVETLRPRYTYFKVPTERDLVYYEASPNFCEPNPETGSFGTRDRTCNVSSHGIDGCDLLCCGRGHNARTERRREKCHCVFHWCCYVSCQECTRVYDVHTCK
Chain of 5-hydroxytryptamine receptor 2A (P35363 whole entry): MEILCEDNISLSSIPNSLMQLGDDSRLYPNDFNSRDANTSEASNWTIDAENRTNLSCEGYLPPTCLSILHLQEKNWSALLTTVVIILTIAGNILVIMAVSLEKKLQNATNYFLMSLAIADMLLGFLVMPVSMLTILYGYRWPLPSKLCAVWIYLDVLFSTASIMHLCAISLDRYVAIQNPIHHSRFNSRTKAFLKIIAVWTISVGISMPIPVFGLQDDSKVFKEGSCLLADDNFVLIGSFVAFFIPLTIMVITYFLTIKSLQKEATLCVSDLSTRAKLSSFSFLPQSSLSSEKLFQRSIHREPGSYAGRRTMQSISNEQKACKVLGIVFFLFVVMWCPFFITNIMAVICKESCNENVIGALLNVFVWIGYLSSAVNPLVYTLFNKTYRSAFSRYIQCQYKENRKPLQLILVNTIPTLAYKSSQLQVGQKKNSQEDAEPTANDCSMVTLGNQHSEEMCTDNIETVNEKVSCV
Chain of Mu-type opioid receptor (P35372 whole entry): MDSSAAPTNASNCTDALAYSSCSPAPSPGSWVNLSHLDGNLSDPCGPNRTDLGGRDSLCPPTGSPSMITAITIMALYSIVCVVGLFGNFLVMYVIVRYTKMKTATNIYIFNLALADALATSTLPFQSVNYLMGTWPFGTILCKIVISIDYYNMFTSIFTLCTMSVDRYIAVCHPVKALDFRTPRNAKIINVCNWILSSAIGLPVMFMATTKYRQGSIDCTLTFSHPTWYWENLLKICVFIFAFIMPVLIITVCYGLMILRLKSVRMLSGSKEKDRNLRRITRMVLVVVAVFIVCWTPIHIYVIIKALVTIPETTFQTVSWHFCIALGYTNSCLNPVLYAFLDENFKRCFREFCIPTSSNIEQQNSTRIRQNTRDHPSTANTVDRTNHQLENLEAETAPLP
Chain of Estrogen receptor beta (Q92731 whole entry): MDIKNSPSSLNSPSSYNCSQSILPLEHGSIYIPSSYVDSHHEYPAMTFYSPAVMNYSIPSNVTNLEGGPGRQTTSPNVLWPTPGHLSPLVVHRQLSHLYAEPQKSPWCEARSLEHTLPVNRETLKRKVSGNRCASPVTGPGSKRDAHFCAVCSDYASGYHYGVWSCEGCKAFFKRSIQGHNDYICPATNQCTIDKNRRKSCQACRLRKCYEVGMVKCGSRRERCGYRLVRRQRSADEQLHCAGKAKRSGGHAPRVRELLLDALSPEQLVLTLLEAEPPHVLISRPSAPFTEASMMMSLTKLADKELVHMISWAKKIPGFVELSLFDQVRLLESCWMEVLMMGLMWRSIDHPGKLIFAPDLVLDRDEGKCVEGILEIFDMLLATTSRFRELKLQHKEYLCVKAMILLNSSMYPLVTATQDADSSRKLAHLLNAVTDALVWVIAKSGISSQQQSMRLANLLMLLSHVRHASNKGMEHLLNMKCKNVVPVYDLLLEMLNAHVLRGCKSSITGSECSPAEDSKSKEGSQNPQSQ

Structure (SMILES): O=[N+]([O-])c1cccnc1N1CCN(Cc2ccc3c(c2)OCO3)CC1
EC50 (Mu-type opioid receptor): 92.5 µM (inactive) | EC50 [1]: 0.00977 µM (active)

Structure (SMILES): CCOC(=O)N1CCN(Cc2ccc3c(c2)OCO3)CC1
EC50 (Mu-type opioid receptor): 92.4 µM (inactive) | EC50 [1]: 1.19 µM (active)

Structure (SMILES): Cc1ccc(CN2CCN(c3ncccn3)CC2)o1
EC50 (Mu-type opioid receptor): 92.4 µM (inactive) | EC50 [1]: 4 µM (active)

Structure (SMILES): O=C(CCc1ccccc1)Nc1ccc(N2CCOCC2)cc1
IC50 (Estrogen receptor beta): > 50 µM (not active)

Structure (SMILES): CC(C)(C)c1ccc(NC(=O)N2CCN(c3ccc([N+](=O)[O-])cn3)CC2)cc1
CC50 [5]: 37.5 µM (active)

Structure (SMILES): c1ccc(-c2cn3c([n+]2-c2ccccc2)CCC3)cc1
IC50 (Protein Wnt-3a): 5.16 µM (active)

Structure (SMILES): CC(C)n1c(-c2ccco2)cs/c1=N/c1cccnc1
IC50 (Protein Wnt-3a): 10.5 µM (active)

Structure (SMILES): CC(=O)N1CCCCN2[C@H](CO)[C@H](c3ccc(-c4cccc(C)c4)cc3)[C@@H]2C1
AC50 [6]: > 52 µM (inactive) | AC50 [7]: 19.2 µM (active) | AC50 [8]: 9.64 µM (active)

Further lines, with some results ahead:

IC50 (Estrogen receptor beta): > 50 µM (not active)
Structure (SMILES): Cc1cccc(-n2c(SCc3cc(=O)n4c(C)cccc4n3)nc3nncc-3c2O)c1

IC50 (Protein Wnt-3a): 0.973 µM (active)
Structure (SMILES): CC(C)(C)c1ccc(-n2ncc3c2CCCC3NC(=O)CCN2CCCC2=O)cc1 (configuration not stated)

IC50 (Caspase-3): 27.5 µM (active) | IC50 (Coagulation factor XII): > 50 µM (inactive) | IC50 [2]: 9.65 µM (active) | IC50 [3]: 25.2 µM (active)
Structure (SMILES): Cc1ccc(C)c(-c2nc3cc(N)ccc3o2)c1
IC50 [4]: 31.1 µM (active)

IC50 (Estrogen receptor beta): > 50 µM (not active)
Structure (SMILES): CCOC(=O)Cc1nn(C)c(=O)c2ccccc12

IC50 (Aminopeptidase N): 16.6 µM (active) | IC50 (Caspase-3): 41.1 µM (active) | IC50 [2]: 15.8 µM (active) | IC50 [3]: 22.5 µM (active)
Structure (SMILES): O=C(O)COc1ccccc1/C=N/NC(=O)CSc1nnc(SCc2ccc(Cl)cc2)s1
IC50 [4]: > 100 µM (inactive)

IC50 (Protein Wnt-3a): 2.07 µM (active)
Structure (SMILES): COc1ccc2c(c1)c(C)cc[n+]2Cc1ccccc1
